Results as given in patent US20060094764A1, “Cyanothiophenes, their preparation and their use in pharmaceutical compositions” (Boehringer Ingelheim International GmbH, priority 2004, published 2006).
Structures can show the parent of a compound that is named as a salt.

| SMILES | melting point |
| --- | --- |
| Cc1c(CCCN(C)c2ccccn2)sc(NC(=O)C2CC3CCC2CC3)c1C#N (stereo not shown) (as salt: hydrochloride) | > 80 °C (dec.) |
| N#Cc1c(NC(=O)C2CCCCC2)sc(-c2ccccc2)c1Cl | 175 to 180 °C |
| N#Cc1c(NC(=O)C2CCCCC2)sc(-c2ccccc2)c1C#N | 208 to 212 °C |
| Cc1ccc(C)c(C2SC(NC(=O)C3CC4CCC3CC4)=C(C#N)C2(Cl)C(F)(F)F)c1 (stereo not shown) | 242 to 244 °C |
| N#Cc1c(NC(=O)C2CCCCC2)sc(-c2ccccc2)c1[N+](=O)[O-] | 213 to 214 °C |
| CCCc1sc(NC(=O)C2CCCCC2)c(C#N)c1OC | 146 to 147 °C |
| Cc1ccc(N(C)CCCc2sc(NC(=O)[C@@H]3C[C@@H]4CC[C@H]3C4)c(C#N)c2C)cc1 (as salt: hydrochloride) | 116 to 129 °C (dec.) |
| Cc1ccc(N(C)CCCc2sc(NC(=O)C3CC4CCC3CC4)c(C#N)c2C)cc1 (stereo not shown) (as salt: hydrochloride) | 133 to 140 °C |
| N#Cc1c(NC(=O)C2CCCCC2)sc(-c2ccccc2)c1Br | 167 to 168 °C |
| Cc1ccc(C)c(-c2cc(C#N)c(NC(=O)[C@@H]3C[C@@H]4CC[C@H]3C4)s2)c1 | 168 to 169 °C |
| Cc1ccc(C)c(-c2sc(NC(=O)[C@@H]3C[C@H]4CC[C@@H]3CC4)c(C#N)c2Cl)c1 (stereo in doubt) | 208 to 210 °C |

Results, then the compound that gave them:

| melting point | SMILES |
| --- | --- |
| 242 °C | Cc1ccc(C)c(-c2sc(NC(=O)[C@H]3C[C@@H]4CC[C@H]3C4)c(C#N)c2C(F)(F)F)c1 |
| 213 to 214 °C | Cc1ccc(C)c(-c2sc(NC(=O)[C@@H]3C[C@@H]4C=C[C@H]3C4)c(C#N)c2C(F)(F)F)c1 |
| 230 °C | Cc1ccc(C)c(-c2sc(NC(=O)[C@H]3C[C@H]4CC[C@@H]3C4)c(C#N)c2C(F)(F)F)c1 |
| 117 to 119 °C | Cc1ccc(C)c(-c2sc(NC(=O)[C@@H]3C[C@@H]4CC[C@H]3C4)c(C#N)c2Cl)c1 |
| 239 to 240 °C | Cc1ccc(C)c(-c2sc(NC(=O)[C@@H]3C[C@H]4CC[C@@H]3C4)c(C#N)c2C(F)(F)F)c1 |
| 226 to 227 °C | Cc1ccc(C)c(-c2sc(NC(=O)[C@@H]3C[C@H]4C=C[C@@H]3C4)c(C#N)c2C(F)(F)F)c1 |
| 209 to 211 °C | Cc1ccc(C)c(-c2sc(NC(=O)[C@H]3C[C@H]4C=C[C@@H]3C4)c(C#N)c2C(F)(F)F)c1 |
| 231 to 233 °C | Cc1ccc(C)c(-c2sc(NC(=O)[C@@H]3C[C@@H]4CC[C@H]3C4)c(C#N)c2C(F)(F)F)c1 |
